Literature values as cited in patent publication US20220249381A1, “COMPRESSED MACITENTAN COMPOSITIONS, METHODS AND USES THEREOF” (TECNIMEDE - SOCIEDADE TÉCNICO-MEDICINAL, SA, priority 2019, published 2022).

- solubility (BCS characterisation): low solubility
- solubility in organic solvents (methanol and ethanol): only slightly soluble
- solubility in aqueous solutions (room temperature, pH 1.2, 4, 6.8, 7, 9): insoluble
Structure (SMILES): CCCNS(=O)(=O)Nc1ncnc(OCCOc2ncc(Br)cn2)c1-c1ccc(Br)cc1 [Macitentan, N-[5-(4-Bromophenyl)-6-[2-[(5-bromo-2-pyrimidinyl)oxy]ethoxy]-4-pyrimidinyl]-N′propylsulfamide]
